From patent publication US20240287054A1, “COMPOUNDS THAT BIND NON-CANONICAL G-QUADRUPLEX STRUCTURES AND METHODS OF MAKING AND USING THE SAME” (The U.S.A., as Represented by the Secretary, Department of …, priority 2021, published 2024)

Key:
[1] = test system: 12 different G4 oligos as well as non-G4 oligos (dsDNA and ssDNA); experiment: Small-scale DNA G4 microarray binding selectivity; details: B33 at 2.5 μM
Procedure: In this example, a small-scale DNA G4 microarray containing 12 different G4 oligos as well as non-G4 oligos (dsDNA and ssDNA) was fabricated and tested (Table 4). To start with, a SA-coated glass surface was prepared. An amino-functionalized glass slide was firstly modified with a solution of N, N′-disuccinimidyl carbonate (DSC, 1.0 M) and N, N-diisopropylethylamine (DIPEA, 1.0 M) in DMF overnight at room temperature. After being washed successively with EtOH, Milli-Q water (5 min each) and dried with N2 gas, the slide was incubated with 1 mg/mL of SA solution for 12 h (overnight) in a 4° C. fridge, followed by blocking the surface with EA buffer for 30 minutes. Then, the slide was rinsed with PBS buffer and Milli-Q water, and dried b centrifugation (1,700 g, 2 min).
In parallel, biotin-labeled DNA/RNA oligos were prepared in annealing buffer resulting in 5 μM stock solutions, followed by annealing (according to above methods). Then all the oligo solutions were transferred into a 384-well plate. Next, the microarray printing was conducted by a robotic arrayer (Nanoprint, Arrayit, USA) with a humidity of 60%. After the microarray was fabricated, the slide was placed in a slide box with a piece of wet Kimwipe tissue and incubated at 4° C. for 2 h.
To incubate with the fluorescent compounds (compound B33, thiazole orange (“TO”), and amsacrine), the slide was thoroughly rinsed with PBST, PBS, and water to remove the unbounded oligos. Then, the slide was dried by centrifugation (1,700 g, 2 min) and quickly assembled with microarray gaskets (Agilent, USA), followed by loading the compound solutions. After 1 h incubation, the slide was washed and dried with the above-mentioned method. Finally, the microarray slide was imaged by a fluorescence scanner (Mapix) using green channel and the fluorescence intensities were quantified.

[2] = target: HIV HP-G4; experiment: FIA binding test with HIV HP-G4 ((3+1) hybrid structure)
Procedure: In this study, FIA was used for validating the bindings between certain bivalent and MYCN G4 oligos. To measure the binding affinity, a solution of each compound was prepared in triplicate in a 96 well-plate (Costar, black side clear bottom), resulting in a final concentration of 100 nM (5% final DMSO in the working solution). Unlabeled MYCN G4 DNA was folded based on the above-mentioned annealing method, then added into the well plate resulting in different concentrations by a seral dilution. The plate was incubated at room temperature for 30 min, followed by centrifuging at 500 rpm for 2 minutes. The fluorescence intensity was then quantitatively recorded by a Synergy Mx microplate reader (BioTek) at Ex 340 nm/Em 500 nm. The fluorescence intensities were then normalized, and the binding affinity was calculated by fitting the curve using one-site total model in GraphPad Prism 8.3.1 software.
In addition to the DMS-footprinting study, the bivalent binding mode of compound B33 toward MYCN hairpin-G4 was also investigated by comparing HP-G4s with different folding types. Four reported HP-G4s with parallel structure (BCL2), (3+1) hybrid structure (HIV and PIM1-form1), and (2+2) chair-type structure (PIM1-form2) were examined by FIA binding test using compound B33 (FIGS. 41A, 41B, 42A, 42B, 43A, 43B, 44A, and 44B). […]

[3] = test system: MYCN G4 DNA (hairpin minor groove); experiment: Fluorescence displacement assay with Hoechst 33258; assay type: binding, human
Procedure: Fluorescence displacement assay. Fluorescence displacement assays were carried out by using two classical minor groove binders (Hoechst 33258 and netropsin). Hoechst 33258, as a fluorophore, was prepared at 5 μM concentration in the buffer (10 mM Tris, pH7.0, 100 mM KCl), and then titrated with different concentrations of unlabeled MYCN G4 oligonucleotides. For displacement, either compound MY-1 or netropsin was added into the solution resulting in a final concentration of 5 μM or 50 μM. Fluorescence signals were obtained with an excitation wavelength of 352 nm and an emission wavelength of 500 nm.

[4] = test system: MYCN G4 DNA; experiment: SPR competitive binding assay on MYCN G4; set-up: species or system human
Procedure: Based on this unexpected observation, and without being bound to a single theory, it currently is believed that the two compounds might bind to MYCN G4 on different sites. To investigate, a competitive assay on SPR was performed by injecting the compounds step-wise in a designated order or injecting a mixture (Brooks et al., Drug Discovery Today 2014, 19:1040-1044; Spurny et al., PNAS 112:E2543-2552). […] Next, TMPyP4, a classical stacking G4-binder (Seenisamy, JACS 2004, 126:8702-8709), was also tested together with MY-1. […] In addition, a CD melting assay was also performed using either MY-1 or a mixture of two hits (1 and MY-1).

Row | displacement of Hoechst 33258 at 5 μM ([3]; 5 μM competitor) | displacement of Hoechst 33258 at 50 μM ([3]; 50 μM competitor) | binding level of MY-1 after injection of 1 ([4]; 100 μM of 1 followed by 100 μM of MY-1, also 500 μM of 1) | SPR binding signal on addition of MY-1 to TMPyP4 solution ([4]; MY-1 100 μM and 250 μM in TMPyP4 solution) | SMILES | binding to dsDNA/ssDNA in microarray [1] | binding to hairpin containing G4 DNAs hTERT and BCL2 in microarray [1] | binding pattern in G4 microarray ([1]; fluorescent compound incubated 1 h) | Kd [2] [µM]
1 | – | – | – | – | COc1ccc(-c2noc(-c3ccc(NCCCNc4c5ccc(Cl)cc5nc5ccc(OC)cc45)nn3)n2)cc1 [B33, N^1-(6-chloro-2-methoxyacridin-9-yl)-N^3-(6-(3-(4-methoxyphenyl)-1,2,4-oxadiazol-5-yl)pyridazin-3-yl)propane-1,3-diamine] | no binding to dsDNA/ssDNA was observed | didn't show fluorescence | only MYCN spots lighted up | 0.151 ± 0.026
2 | no measurable change | partial fluorescence decrease | not significantly changed | increase of SPR binding signals | COc1ccc(-c2noc(-c3ccc(NCCCN4CCCC4)nn3)n2)cc1 [MY-1, 6-(3-(4-methoxyphenyl)-1,2,4-oxadiazol-5-yl)-N-(3-(pyrrolidin-1-yl)propyl)pyridazin-3-amine] | – | – | – | –
